In ChEMBL document CHEMBL1144307, “Design of selective phenylglycine amide tissue factor/factor VIIa inhibitors” (Bioorg Med Chem Lett, 2005):

Experiments:
Coagulation factor VII = molecular target: T1, Coagulation factor VII (Homo sapiens, UniProt P08709); assay: The value of binding constant measured against coagulation factor VII
T1 sequence (P08709 whole entry): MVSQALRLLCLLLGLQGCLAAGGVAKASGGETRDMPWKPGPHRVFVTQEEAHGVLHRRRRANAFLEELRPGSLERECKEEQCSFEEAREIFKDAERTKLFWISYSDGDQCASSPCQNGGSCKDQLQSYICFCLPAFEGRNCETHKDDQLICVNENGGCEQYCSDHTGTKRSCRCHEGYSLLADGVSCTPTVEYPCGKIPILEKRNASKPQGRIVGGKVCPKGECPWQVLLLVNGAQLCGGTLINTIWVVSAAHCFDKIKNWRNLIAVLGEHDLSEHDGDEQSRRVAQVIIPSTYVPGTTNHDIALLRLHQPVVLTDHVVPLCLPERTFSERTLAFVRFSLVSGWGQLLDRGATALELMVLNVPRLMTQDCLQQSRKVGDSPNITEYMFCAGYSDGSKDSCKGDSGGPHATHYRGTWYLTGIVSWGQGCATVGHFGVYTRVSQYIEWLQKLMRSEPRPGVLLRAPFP

Serine protease 1 = Serine protease 1 (Homo sapiens, UniProt P07477); assay: The value of binding constant measured against human trypsin
Prothrombin = Prothrombin (Homo sapiens, UniProt P00734); assay: The value of binding constant measured against human Thrombin
Coagulation factor X = Coagulation factor X (Homo sapiens, UniProt P00742); assay: The value of binding constant measured against coagulation factor X (factor Xa)
Sequence of Coagulation factor X (P00742 41-179 limits assumed): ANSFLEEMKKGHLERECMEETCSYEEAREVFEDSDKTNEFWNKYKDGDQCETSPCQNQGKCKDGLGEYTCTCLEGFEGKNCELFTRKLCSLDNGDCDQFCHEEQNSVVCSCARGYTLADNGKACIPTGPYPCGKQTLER
Sequence of Coagulation factor X (P00742 235-488 limits assumed): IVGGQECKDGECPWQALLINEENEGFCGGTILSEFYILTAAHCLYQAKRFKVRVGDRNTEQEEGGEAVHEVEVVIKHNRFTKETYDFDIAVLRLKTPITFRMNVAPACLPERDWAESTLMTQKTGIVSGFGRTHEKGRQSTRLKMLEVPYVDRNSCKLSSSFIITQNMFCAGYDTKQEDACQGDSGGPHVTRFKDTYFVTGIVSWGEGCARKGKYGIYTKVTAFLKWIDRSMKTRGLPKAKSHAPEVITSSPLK

Sequence of Serine protease 1 (P07477 whole entry): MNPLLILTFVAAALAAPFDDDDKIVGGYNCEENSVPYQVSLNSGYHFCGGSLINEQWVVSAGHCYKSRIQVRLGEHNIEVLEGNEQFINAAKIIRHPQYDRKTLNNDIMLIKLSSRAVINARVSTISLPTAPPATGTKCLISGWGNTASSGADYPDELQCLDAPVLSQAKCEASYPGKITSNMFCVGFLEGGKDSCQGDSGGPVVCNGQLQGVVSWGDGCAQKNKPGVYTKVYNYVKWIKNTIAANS

Compound	Ki (Coagulation factor VII)	Ki (Serine protease 1)	Ki (Prothrombin)	Ki (Coagulation factor X)
CCOc1ccc(C(Nc2ccc(C(=N)N)cc2)C(=O)NCc2ccccc2)cc1OCC (stereo unspecified)	40 nM	2000 nM	570 nM	19000 nM
COc1cc([C@@H](Nc2ccc(C(=N)N)cc2)C(=O)N[C@H](C(=O)O)c2ccccc2)ccc1OCc1ccccc1		40 nM	35 nM	8000 nM
COc1cc(C(Nc2ccc(C(=N)N)cc2)C(=O)NCc2ccccc2)ccc1OCc1ccccc1 (stereo unspecified)	220 nM	210 nM	43 nM	5300 nM
COc1cc(CNc2ccc(C(=N)N)cc2)ccc1OCc1ccccc1	1000 nM	580 nM	270 nM	1200 nM
COc1cc([C@@H](Nc2ccc(C(=N)N)cc2)C(=O)N[C@H](C(=O)O)c2ccccc2)c(C(=O)Cc2ccccc2)cc1OCc1ccccc1	7 nM	80 nM	6400 nM	19000 nM
CCOc1cc(C(Nc2ccc(C(=N)N)cc2)C(=O)NCc2ccccc2)ccc1OCc1ccccc1 (stereo unspecified)	130 nM	1100 nM	48 nM	4500 nM
COc1ccc(C(Nc2ccc(C(=N)N)cc2)C(=O)NCc2ccccc2)cc1OC (stereo unspecified)	350 nM	1700 nM	460 nM	30000 nM
CCOc1ccc(CNc2ccc(C(=N)N)cc2)cc1OCC		2000 nM	4500 nM	39000 nM
COc1cc(C(Nc2ccc(C(=N)N)cc2)C(=O)NCc2ccccc2)c(S(=O)(=O)c2ccccc2)cc1OCc1ccccc1 (stereo unspecified)	160 nM	420 nM	1700 nM	> 74000 nM
COc1cc([C@@H](Nc2ccc(C(=N)N)cc2)C(=O)N[C@H](C(=O)O)c2ccccc2)c(S(=O)(=O)c2ccccc2)cc1OCc1ccccc1		50 nM	540 nM	12400 nM
COc1cc(CNc2ccc(C(=N)N)cc2)c(NS(C)(=O)=O)cc1OCc1ccccc1	380 nM	400 nM	1400 nM	26000 nM
